According to patent publication US20100248377A1, “DETECTION OF CONTRAST MEDIUM-INDUCED NEPHROTOXICITY” (priority 2007, published 2010):

Legend:
Format in all cases: in vivo, human
[1] = test system: serum creatinine; test: Example 3 case, coronary angiography, serum creatinine and renal outcome; conditions: person, 350 ml
Experimental: (§1) In order to examine whether the chest pain is caused by a coronary artery disease, a coronary angiography is initiated. A serum sample is obtained from the patient prior to the angiography and the amount of creatinine is determined in a serum sample (0.9 mg/dl). Moreover, in a urine sample HMW adiponectin, urotensin II and L-FABP are determined (adiponectin 0.92 μg/g Creatinine; L-FABP 7 μg/g Creatinine; Urotensin II: 1.2 μg/g Creatinine).
(§2) For coronary angiography 350 ml Xen350 are administered to the patient as a contrast medium. After successful coronary angiography, the patient is monitored for 24 hours. Moreover, creatinine (serum level: 1 mg/dl), adiponectin, L-FABP and urotensin II are determined again after 24 hours after the administration of the contrast medium (urine level: adiponectin 1.55 μg/g Creatinine; L-FABP 21 μg/g Creatinine; Urotensin II: 6 μg/g Creatinine).

[2] = test system: total adiponectin (urine); test: Dose response analysis, total adiponectin in urine of PCTA patients after contrast medium; conditions: for Adiponectin Changes: 24 h vs 0 h; for 24 h Adiponectin: urine
Experimental: (§3) The effect of the administration of various amounts of the contrast medium Iobitridol (Xenetix, Xen 350) on the level of creatinine, urotensin II, total adiponectin and L-FABP in urine samples obtained from subjects which underwent percutaneous transluminal coronary angioplasty (PCTA) was analysed. All six patients examined in this study had no apparent renal disorder indicated by a serum creatinine level of less than 1.2 mg/dl (before PCTA). Each patient received a different amount of the contrast medium (50 ml, 80 ml, 100 ml, 150 ml, 220 ml and 350 ml, respectively). The urinary levels of creatinine, urotensin II, total adiponectin and L-FABP were determined in samples that were obtained prior to the administration of different volumes of the contrast medium (time point 0) and 24 h after the administration of the contrast medium. […] The results are normalized to the urinary creatinine concentration. From the data it clearly can be seen that a high dose of an administered contrast medium leads to a significant increase of adiponectin and L-FABP.

[3] = test system: creatinine (urine); test: Dose response analysis, creatinine in urine of PCTA patients after contrast medium; conditions: 24 h after vs before administration; six patients, 50-350 ml
Experimental: as §3

[4] = test system: total adiponectin (urine); test: Example 2 study, 20 PCTA subjects, urine total adiponectin after contrast medium; conditions: n = 20, t = 0 h value 0.66
Experimental: (§4) In a different study, the effect of the administration of the contrast medium lobitridol (Xenetix, Xen 350) on the urine level of creatinine, urotensin II, total adiponectin and L-FABP in samples obtained from 20 subjects which underwent percutaneous transluminal coronary angioplasty (PCTA) was analyzed. Samples were obtained prior to the administration of the contrast medium (t=0 h), four hours after administration of the contrast medium (t=4 h), as well as 24 hours after administration of the contrast medium.

[5] = test system: L-FABP (urine); test: Dose response analysis, L-FABP in urine of PCTA patients after contrast medium; conditions: for L-FABP Changes: 24 h vs 0 h; for 24 h L-FABP: urine
Experimental: as §3

[6] = test system: creatinine (urine); test: Example 2 study, 20 PCTA subjects, urine creatinine after contrast medium; conditions: n = 20, t = 0 h value 0.75
Experimental: as §4

[7] = test system: urotensin II (urine); test: Example 2 study, 20 PCTA subjects, urine urotensin II after contrast medium; conditions: for Urotensin II, median: urine, n = 20, t = 0 h value 1.18
Experimental: as §4

[8] = test system: urotensin II (urine); test: Dose response analysis, urotensin II in urine of PCTA patients after contrast medium; conditions: 24 h after vs before administration; six patients, 50-350 ml
Experimental: as §3

[9] = test system: urotensin II (urine); test: Example 3 case, coronary angiography, urine urotensin II; conditions: person, 350 ml, 24 hours after administration; before 1.2
Experimental: as §1, §2

[10] = test system: L-FABP (urine); test: Example 3 case, coronary angiography, urine L-FABP; conditions: person, 350 ml, 24 hours after administration; before 7
Experimental: as §1, §2

[11] = test system: HMW adiponectin (urine); test: Example 3 case, coronary angiography, urine HMW adiponectin; conditions: person, 350 ml, 24 hours after administration; before 0.92
Experimental: as §1, §2

[12] = test system: L-FABP (urine); test: Example 2 study, 20 PCTA subjects, urine L-FABP after contrast medium; conditions: for L-FABP, median: urine, n = 20, t = 0 h value 13.44
Experimental: as §4

[13] = 24 h after vs before administration, six patients, 50-350 ml

CN(CC(O)CO)C(=O)c1c(I)c(NC(=O)C(CO)CO)c(I)c(C(=O)N(C)CC(O)CO)c1I (centres unmarked) [Xen350, Iobitridol]
creatinine serum level ([1]; 24 hours after administration, before 0.9): 1 mg/dL | serum creatinine level ([1]; after two more days (after the 24 h monitoring)): 2.5 mg/dL | renal outcome diagnosed ([1]; after two more days, significantly reduced urine excretion): acute renal failure | increase of median adiponectin in urine [2, 13]: 400% | Adiponectin Changes ([2]; Patient 1, 50 ml): −88% | 24 h Adiponectin ([2]; Patient 1, 50 ml, 0 h value 0.92): 0.11 ug/g Crea | Adiponectin Changes ([2]; Patient 2, 80 ml): −22% | 24 h Adiponectin ([2]; Patient 2, 80 ml, 0 h value 2.99): 2.34 ug/g Crea | Adiponectin Changes ([2]; Patient 3, 100 ml): −44% | 24 h Adiponectin ([2]; Patient 3, 100 ml, 0 h value 2.68): 1.49 ug/g Crea | Adiponectin Changes ([2]; Patient 4, 150 ml): −91% | 24 h Adiponectin ([2]; Patient 4, 150 ml, 0 h value 0.32): 0.03 ug/g Crea | Adiponectin Changes ([2]; Patient 5, 220 ml): 897% | 24 h Adiponectin ([2]; Patient 5, 220 ml, 0 h value 0.41): 3.68 ug/g Crea | Adiponectin Changes ([2]; Patient 6, 350 ml): 690% | 24 h Adiponectin ([2]; Patient 6, 350 ml, 0 h value 0.1): 0.69 ug/g Crea | increase of median creatinine in urine [3]: 41% | Adiponectin, median ([4]; t = 4 h): 0.89 μg/g Creatinine | Adiponectin, median ([4]; t = 24 h): 1.09 μg/g Creatinine | increase of median L-FABP in urine [5, 13]: 415% | L-FABP Changes ([5]; Patient 1, 50 ml): −45% | 24 h L-FABP ([5]; Patient 1, 50 ml, 0 h value 20.19): 11.17 ug/g Crea | L-FABP Changes ([5]; Patient 2, 80 ml): 49% | 24 h L-FABP ([5]; Patient 2, 80 ml, 0 h value 42.71): 63.48 ug/g Crea | L-FABP Changes ([5]; Patient 3, 100 ml): 40% | 24 h L-FABP ([5]; Patient 3, 100 ml, 0 h value 13.77): 19.33 ug/g Crea | L-FABP Changes ([5]; Patient 4, 150 ml): 481% | 24 h L-FABP ([5]; Patient 4, 150 ml, 0 h value 6.8): 32.74 ug/g Crea | L-FABP Changes ([5]; Patient 5, 220 ml): 544% | 24 h L-FABP ([5]; Patient 5, 220 ml, 0 h value 13.1): 71.23 ug/g Crea | L-FABP Changes ([5]; Patient 6, 350 ml): 406% | 24 h L-FABP ([5]; Patient 6, 350 ml, 0 h value 4.36): 17.71 ug/g Crea | Creatinine, median ([6]; t = 4 h): 0.45 g/L | Creatinine, median ([6]; t = 24 h): 1.05 g/L | Urotensin II ([7]; Table 3 Patient 1, t = 4 h, t = 0 h value 832): 999 pg/mL | Urotensin II ([7]; Table 3 Patient 1, t = 24 h, t = 0 h value 832): 2591 pg/mL | Urotensin II ([7]; Table 3 Patient 2, t = 4 h, t = 0 h value 1043): 1131 pg/mL | Urotensin II ([7]; Table 3 Patient 2, t = 24 h, t = 0 h value 1043): 39441 pg/mL | Urotensin II, median ([7]; t = 4 h): 1.23 μg/g Creatinine | Urotensin II, median ([7]; t = 24 h): 1.77 μg/g Creatinine | increase of median urotensin II in urine [8]: 350% | Urotensin II urine level [9]: 6 μg/g Creatinine | L-FABP urine level [10]: 21 μg/g Creatinine | adiponectin urine level [11]: 1.55 μg/g Creatinine | L-FABP ([12]; Table 3 Patient 1, t = 4 h, t = 0 h value 12): 6 μg/g Creatinine | L-FABP ([12]; Table 3 Patient 1, t = 24 h, t = 0 h value 12): 26 μg/g Creatinine | L-FABP ([12]; Table 3 Patient 2, t = 4 h, t = 0 h value 5): 6 μg/g Creatinine | L-FABP ([12]; Table 3 Patient 2, t = 24 h, t = 0 h value 5): 33 μg/g Creatinine | L-FABP, median ([12]; t = 4 h): 12.16 μg/g Creatinine | L-FABP, median ([12]; t = 24 h): 26.03 μg/g Creatinine
